# Results reported in patent US4343808A, “Method of inhibiting sickling of sickle erythrocytes” (The Dow Chemical Company, priority 1980, dated 1982).
# Columns and labels:
# [1] = biological target: Hb-S (Homo sapiens, UniProt P68871+P69905, E7V); experiment: Oxygen-Affinity Assay (whole Hb-S blood); type: cell-based; settings: 37° C.
# Method: The compounds described herein were tested in an "Oxygen-Affinity Assay" to measure the ability of the compound to influence the Hb-S oxygen affinity. There is a relationship between oxygen binding and Hb-S gelation and thus a measure of oxygen affinity is an index of Hb-S aggregation within the red blood cell. Hemoglobin S polymers decrease the overall oxygen affinity. Thus a return to normal of Hb-S oxygen affinity is a measure of decreased gelation.
# For measurements of oxygen equilibria whole Hb-S blood was equilibrated in a tonometer at 37° C. and measurements were made in the presence of a 10 millimolar (mM) concentration of the test compound. Some of the compounds were also tested at a 5 mM concentration. The whole blood pH, oxygen tension, and blood PO2 were measured.
# The percentage of oxygen saturation was plotted against the partial pressure of oxygen (mm Hg). The P50 value (oxygen tension at 50% saturation) was determined for each control and treated whole blood sample and the difference (ΔP50) between the control and treated whole blood sample noted. As used herein, a negative ΔP50 represents a change toward a normal Hb-S oxygen affinity and thus is a measure of the test compound's ability to inhibit the sickling of sickle erythrocytes.
# [2] = tested on: sickle erythrocytes (intact sickle cells); experiment: Blockade Erythrocyte Morphology, deoxygenation induced sickling; type: cell-based, human
# Method: (§1) The compound 2-((4-cyanophenoxy)methyl)-2-imidazoline p-toluenesulfonate (Example 2) and 2-((3-cyanophenoxy)methyl)-2-imidazoline p-toluenesulfonate (Example 4) were tested for anti-sickling activity using a suspension of intact sickle cells as follows:
# (§2) Blood collected from individuals with homozygous sickle cell disease, as well as normal blood, was anticoagulated with ethylenediaminetetraacetic acid (EDTA) and refrigerated until used. To portions of the blood samples were added appropriate volumes of a solution of the compound to be tested so that final concentrations of 0.0125 molar (M), 0.025 M, 0.05 M or 0.1 M were obtained, and the mixtures were incubated at 37° C. for 30 minutes. The test compounds were dissolved in saline. Appropriate volumes of saline were added to the control samples. Urea in invert sugar (UIS) at 0.05 M to 1.5 M concentrations was used as an agent capable of transforming sickled cells into normal forms and was therefore used as a positive control.
# (§3) Anoxic sickling (deoxygenation) was induced by exposing sickle blood to a hydrated 95% nitrogen, 5% carbon dioxide atmosphere for 60 minutes.
# (§4) After the sickling stimulus, slides were prepared. A volume of 0.2 ml of sickled cells were fixed in 1.0 ml of 3.2% glutaraldehyde in 0.1 M cacodylic buffer. Wet slides were prepared and sealed.
# (§5) The slides were scored for normal cells (Typ.), atypical cells (Atyp.) and sickled cells (Sickle) on the basis of counting 300 cells per slide.
# [3] = tested on: sickle erythrocytes (intact sickle cells); experiment: Blockade Erythrocyte Morphology, chemically induced sickling (sodium metabisulfite); type: cell-based, human
# Method: as §1, §2
# (§6) Sickling was induced chemically by reducing the blood samples with an equal volume of a 2% solution of sodium metabisulfite in phosphate-buffered saline for 30 minutes.
# as §4, §5
# [4] = tested on: sickle erythrocytes (sickle cell blood); experiment: Reverse Erythrocyte Morphology, deoxygenation induced sickling; type: cell-based, human
# Method: as §2, §3, §4, §5
# (§7) The compound 2-((4-cyanophenoxy)methyl)-2-imidazoline p-toluenesulfonate (Example 2) was tested for its ability to reverse the sickling process by first applying the hereinabove noted sickling stimuli to the sickle cell blood and then adding the test compound to the red cell suspensions.
# [5] = tested on: sickle erythrocytes (sickle cell blood); experiment: Reverse Erythrocyte Morphology, chemically induced sickling (sodium metabisulfite); type: cell-based, human
# Method: as §2, §6, §4, §5, §7
# [6] = Toxicity (LD50) in mice; settings: mouse, in vivo, ip, intraperitoneal injection
# [7] = deoxygenation, 0.025 M, vs control
# [8] = deoxygenation, 0.05 M, vs control
# [9] = deoxygenation, 0.1 M, vs control
# [10] = over the ranges tested (0.025-0.1 M)
# [11] = reverse, deoxygenation, 0.025 M, vs control
# [12] = reverse, deoxygenation, 0.05 M, vs control
# [13] = reverse, deoxygenation, 0.1 M, vs control
# [14] = reverse, chemically induced, 0.025 M, vs control
# [15] = reverse, chemically induced, 0.05 M
# [16] = reverse, chemically induced, 0.05 M, vs control
# [17] = reverse, chemically induced, 0.1 M
# [18] = reverse, chemically induced, 0.1 M, vs control
structure (smiles),measurement,setting,value
"CS(=O)(=O)c1ccc(OCC2=NCCN2)cc1.Cl [Example 3, 2-((4-(Methylsulfonyl)phenoxy)methyl)-2-imidazoline Hydrochloride]","Δ P50 (oxygen tension at 50% saturation, difference control vs treated)",[1]; 10 mM,-7.0 mm Hg
"Cl.FC(F)(F)c1cccc(OCC2=NCCN2)c1 [Example 7, 2-(3-Trifluoromethylphenoxy)methyl-2-imidazoline Hydrochloride]","Δ P50 (oxygen tension at 50% saturation, difference control vs treated)",[1]; 10 mM,-3.0 mm Hg
O=[N+]([O-])c1cccc(OCC2=NCCN2)c1 [Example 1],"Δ P50 (oxygen tension at 50% saturation, difference control vs treated)",[1]; 5 mM,-2 mm Hg
same,"Δ P50 (oxygen tension at 50% saturation, difference control vs treated)",[1]; 10 mM,-10.6 mm Hg
"Cc1ccc(S(=O)(=O)O)cc1.N#Cc1ccc(OCC2=NCCN2)cc1 [Example 2, 2-((4-Cyanophenoxy)methyl)-2-imidazoline p-Toluenesulfonate]",inhibition at 25000 µM,"[2]; Homo sapiens, Erythrocyte, deoxygenation, 0.025 M, vs control, read-out: Percent Change, Sickle (sickled cells)",19%
same,inhibition at 50000 µM,"[2]; Homo sapiens, Erythrocyte, deoxygenation, 0.05 M, vs control, read-out: Percent Change, Sickle (sickled cells)",27%
same,inhibition at 100000 µM,"[2]; Homo sapiens, Erythrocyte, deoxygenation, 0.1 M, vs control, read-out: Percent Change, Sickle (sickled cells)",61%
same,interference with deoxygenation induced sickling,[2]; Table 1,interfered with deoxygenation induced sickling
same,Lysis,"[2]; deoxygenation, 0.025 M",-
same,"Percent Change, Atyp. (atypical cells)",[2]; [7],-36%
same,"Percent Change, Typ. (normal cells)",[2]; [7],+86%
same,Lysis,"[2]; deoxygenation, 0.05 M",-
same,cell lysis (in words),"[2]; deoxygenation, 0.05 M",without the appearance of cell lysis
same,"Percent Change, Atyp. (atypical cells)",[2]; [8],-36%
same,"Percent Change, Typ. (normal cells)",[2]; [8],+106%
same,Lysis,"[2]; deoxygenation, 0.1 M",± (the appearance of some cell lysis at that particular test compound concentration)
same,"Percent Change, Atyp. (atypical cells)",[2]; [9],-39%
same,"Percent Change, Typ. (normal cells)",[2]; [9],+170%
same,sickling inhibitory effect in the chemically induced test system,[3],slightly sickling inhibitory effect
same,Lysis,[3]; 0.025 M,-
same,"Percent Change, Atyp. (atypical cells)","[3]; 0.025 M, vs control",-14%
same,"Percent Change, Typ. (normal cells)","[3]; 0.025 M, vs control",+56%
same,Lysis,[3]; 0.05 M,-
same,"Percent Change, Atyp. (atypical cells)","[3]; 0.05 M, vs control",+138%
same,"Percent Change, Typ. (normal cells)","[3]; 0.05 M, vs control",+84%
same,Lysis,[3]; 0.1 M,± (the appearance of some cell lysis at that particular test compound concentration)
same,"Percent Change, Atyp. (atypical cells)","[3]; 0.1 M, vs control",-63%
same,"Percent Change, Typ. (normal cells)","[3]; 0.1 M, vs control",+78%
same,inhibition at 25000 µM,"[3]; Homo sapiens, Erythrocyte, 0.5 h, 0.025 M, vs control, read-out: Percent Change, Sickle (sickled cells)",27%
same,inhibition at 50000 µM,"[3]; Homo sapiens, Erythrocyte, 0.5 h, 0.05 M, vs control, read-out: Percent Change, Sickle (sickled cells)",29%
same,inhibition at 100000 µM,"[3]; Homo sapiens, Erythrocyte, 0.5 h, 0.1 M, vs control, read-out: Percent Change, Sickle (sickled cells)",32%
same,inhibition at 25000 µM,"[4]; Homo sapiens, Erythrocyte, reverse, deoxygenation, 0.025 M, vs control, read-out: Percent Change, Sickle (sickled cells)",47%
same,inhibition at 50000 µM,"[4]; Homo sapiens, Erythrocyte, reverse, deoxygenation, 0.05 M, vs control, read-out: Percent Change, Sickle (sickled cells)",46%
same,inhibition at 100000 µM,"[4]; Homo sapiens, Erythrocyte, reverse, deoxygenation, 0.1 M, vs control, read-out: Percent Change, Sickle (sickled cells)",41%
same,reversal of sickling induced by deoxygenation,[4]; [10],effectively reversed sickling
same,Lysis,"[4]; reverse, deoxygenation, 0.025 M",-
same,"Percent Change, Atyp. (atypical cells)",[4]; [11],-22%
same,"Percent Change, Typ. (normal cells)",[4]; [11],+133%
same,Lysis,"[4]; reverse, deoxygenation, 0.05 M",-
same,"Percent Change, Atyp. (atypical cells)",[4]; [12],-26%
same,"Percent Change, Typ. (normal cells)",[4]; [12],+142%
same,Lysis,"[4]; reverse, deoxygenation, 0.1 M",± (the appearance of some cell lysis at that particular test compound concentration)
same,hemolysis (in words),"[4]; reverse, deoxygenation, 0.1 M",some hemolysis observed
same,"Percent Change, Atyp. (atypical cells)",[4]; [13],-46%
same,"Percent Change, Typ. (normal cells)",[4]; [13],+202%
same,inhibition at 25000 µM,"[5]; Homo sapiens, Erythrocyte, reverse, chemically induced, 0.025 M, vs control, read-out: Percent Change, Sickle (sickled cells)",27%
same,inhibition at 50000 µM,"[5]; Homo sapiens, Erythrocyte, reverse, chemically induced, 0.05 M, vs control, read-out: Percent Change, Sickle (sickled cells)",52%
same,inhibition at 100000 µM,"[5]; Homo sapiens, Erythrocyte, reverse, chemically induced, 0.1 M, vs control, read-out: Percent Change, Sickle (sickled cells)",48%
same,reversal of sickling induced chemically,[5]; [10],effectively reversed sickling
same,Lysis,"[5]; reverse, chemically induced, 0.025 M",-
same,"Percent Change, Atyp. (atypical cells)",[5]; [14],-49%
same,"Percent Change, Typ. (normal cells)",[5]; [14],+48%
same,Lysis,[5]; [15],± (the appearance of some cell lysis at that particular test compound concentration)
same,hemolysis (in words),[5]; [15],some hemolysis observed
same,"Percent Change, Atyp. (atypical cells)",[5]; [16],-73%
same,"Percent Change, Typ. (normal cells)",[5]; [16],+87%
same,Lysis,[5]; [17],± (the appearance of some cell lysis at that particular test compound concentration)
same,hemolysis (in words),[5]; [17],some hemolysis observed
same,"Percent Change, Atyp. (atypical cells)",[5]; [18],-96%
same,"Percent Change, Typ. (normal cells)",[5]; [18],+86%
same,"Δ P50 (oxygen tension at 50% saturation, difference control vs treated)",[1]; 10 mM,-9.1 mm Hg
same,LD50,[6],316 mg/kg
